From patent US9284308B2, “Methylene linked quinolinyl modulators of RORγt” (Janssen Pharmaceutica NV, priority 2013, dated 2016)

Assays:
[1] = molecular target: T1, human RORγt ligand binding domain (RORγt LBD) (Homo sapiens, UniProt P51449); experiment: RORγt ThermoFluor assay (ligand binding affinity from protein thermal stability)
T1 construct: His-tag (N); TurboTEV protease cleavage site (ENLYFQG) (N); made in house; host or cells: E. coli (pHIS1, modified pET vector)
T1 sequence (P51449 with tags, fused parts or gaps): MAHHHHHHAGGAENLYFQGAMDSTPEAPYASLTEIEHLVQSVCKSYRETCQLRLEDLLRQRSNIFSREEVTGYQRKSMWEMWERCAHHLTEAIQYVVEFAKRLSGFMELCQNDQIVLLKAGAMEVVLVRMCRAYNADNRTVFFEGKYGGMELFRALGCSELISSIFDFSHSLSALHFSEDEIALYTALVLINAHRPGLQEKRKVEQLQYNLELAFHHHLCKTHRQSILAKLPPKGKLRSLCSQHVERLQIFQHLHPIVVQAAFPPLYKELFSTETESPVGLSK
Protocol: This approach is applicable to a wide variety of systems, and rigorous in theoretical interpretation through quantitation of equilibrium binding constants (KD).
The shift in the melting point described as a ΔTm is proportional to the concentration and affinity of the ligand.
RORγt ThermoFluor® Assay Construct
Protein and compound solutions are dispensed into black 384-well polypropylene PCR microplates (Abgene) and overlayed with silicone oil (1 μL, Fluka, type DC 200) to prevent evaporation.
Bar-coded assay plates are robotically loaded onto a thermostatically controlled PCR-type thermal block and then heated at a typical ramp-rate of 1° C./min for all experiments. Fluorescence was measured by continuous illumination with UV light (Hamamatsu LC6) supplied via fiber optic and filtered through a band-pass filter (380-400 nm; >6 OD cutoff). Fluorescence emission of the entire 384-well plate was detected by measuring light intensity using a CCD camera (Sensys, Roper Scientific) filtered to detect 500±25 nm, resulting in simultaneous and independent readings of all 384 wells. Images were collected at each temperature, and the sum of the pixel intensity in a given area of the assay plate was recorded versus temperature. Reference wells contained RORγt without compounds, and the assay conditions were as follows: • 0.065 mg/mL RORγt • 60 μM 1,8-ANS • 100 mM Hepes, pH 7.0 • 10 mM NaCl • 2.5 mM GSH • 0.002% Tween-20
Project compounds were arranged in a pre-dosed mother plate (Greiner Bio-one) wherein compounds are serially diluted in 100% DMSO by 1:2 from a high concentration of 10 mM over 12 columns within a series (column 12 is a reference well containing DMSO, no compound). The compounds were robotically dispensed directly into assay plates (1×=[…]) using a Hummingbird capillary liquid handling instrument (Digilab). Following compound dispense, protein and dye in buffer was added to achieve the final assay volume of 3 μL, followed by 1 μL of silicone oil.

human RORγt LBD = molecular target: T2, human RORγt LBD (Homo sapiens, UniProt P51449); experiment: RORγt (LBD) reporter assay in HEK293T cells; format: cell-based; conditions: for RORγt (LBD) Reporter Assay, % inhibition @ 6 μM: 6 μM compound; for inhibition at 6 µM: HEK-293T, read-out: RORγt (LBD) Reporter Assay, % inhibition @ 6 μM, 6 μM compound
T2 construct: expressed in transfected cells; host or cells: HEK293T
T2 sequence (P51449 258-518): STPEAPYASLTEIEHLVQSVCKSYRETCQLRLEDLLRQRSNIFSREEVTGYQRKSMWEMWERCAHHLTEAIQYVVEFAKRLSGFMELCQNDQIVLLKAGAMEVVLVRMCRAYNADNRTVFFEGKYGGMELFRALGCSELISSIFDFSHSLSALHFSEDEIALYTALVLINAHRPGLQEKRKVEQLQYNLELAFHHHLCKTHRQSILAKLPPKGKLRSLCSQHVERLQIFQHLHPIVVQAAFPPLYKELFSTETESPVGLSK
Description: RORγt (LBD) Reporter Assay
Cells used in the assay were co-transfected with two constructs. The first construct, pBIND-RORγt LBD, contained the wild type human RORγt LBD fused to the DNA binding domain of the GAL4 protein. The second construct, pGL4.31 (Promega Cat no. C935A), contained multiple GAL4 responsive DNA elements upstream of firefly luciferase. […] The mutant construct was called pBIND-RORγt-AF2.
The pBIND vector contains the GAL4 DNA Binding Domain (GAL4 DBD) and the renilla luciferase gene under control of the SV40 promoter. Renilla luciferase expression serves as a control for transfection efficiency and cell viability.
The reporter assay was performed by transiently transfecting HEK293T cells with 5 μg of pBIND-RORγt LBD or pBIND-RORγt LBD-AF2 and 5 μg pGL4.31 (Promega Cat no. C935A) using Fugene 6 (Invitrogen Cat no. E2691) at a 1:6 ratio of DNA:Fugene 6 in a T-75 flask in which cells were at least 80% confluent. Twenty four hours after bulk transfection, cells were plated into 96-well plates at 50,000 cells/well in phenol-red free DMEM containing 5% Lipid Reduced FCS and Pen/Strep. Six hours after plating, cells were treated with compounds for 24 hours. Media was removed and cells were lysed with 50 μL 1× Glo Lysis Buffer (Promega). Dual Glo Luciferase Reagent (50 μL/well) was then added and firefly luciferase luminescence was read on an Envision after a ten minute incubation. Finally, Stop and Glo reagent (50 μL/well) was added and renilla luciferase luminescence was read on an Envision after a ten minute incubation. […] Agonist compounds increase RORγt-driven luciferase expression, and antagonist or inverse agonist compounds decrease luciferase expression.

[2] = tested on: IL-17 production by CD4 T cells; experiment: Human Th17 assay; format: cell-based; conditions: Homo sapiens, CD4+ T, IL-17 production by human CD4 T cells
Protocol: The human Th17 assay tests the effect of RORγt modulatory compounds on IL-17 production by CD4 T cells under conditions which favor Th17 differentiation. Total CD4^+ T cells were isolated from the peripheral blood mononuclear cells (PBMC) of healthy donors using a CD4^+ T cell isolation kit II, following the manufacturer's instructions (Miltenyi Biotec). […] 50 μL of compound at titrated concentrations in DMSO were added into each well at final DMSO concentration at 0.2%. Cells were incubated for 1 hour, then 50 μL of Th17 cell differentiation medium was added to each well. The final concentrations of antibodies and cytokines (R&D Systems) in differentiation medium were: 3×10^6/mL anti-CD3/CD28 beads (prepared using human T cell activation/expansion kit, Miltenyi Biotec), 10 μg/mL anti-IL4, 10 μg/mL anti-IFNγ, 10 ng/mL IL1β, 10 ng/mL IL23, 50 ng/mL IL6, 3 ng/mL TGFβ and 20 U/mL IL2. Cells were cultured at 37° C. and 5% CO2 for 3 days. Supernatants were collected and the accumulated IL-17 in culture was measured by using MULTI-SPOT® Cytokine Plate following manufacture's instruction (Meso Scale Discovery). The plate was read using Sector Imager 6000, and IL-17 concentration was extrapolated from the standard curve. The IC50s were determined by GraphPad.

SMILES | Kd [1] [nM] | IC50 (human RORγt LBD) [nM] | RORγt (LBD) Reporter Assay, % inhibition @ 6 μM (human RORγt LBD) [%] | IC50 [2] [nM] | inhibition at 6 µM (human RORγt LBD) [%]
COc1nc2ccc(C(O)(c3ccc(Cl)cc3)c3cncn3C)cc2c(Cl)c1Cc1ccc(C(F)(F)F)nc1 (single isomer, unassigned) [Example 39c] | 19 | 81 | 98 | 37 | 
COc1nc2ccc(C(O)(c3ccc(C)nc3C)c3cnnn3C)cc2c(Cl)c1Cc1ccc(F)cc1 (single isomer, unassigned) [Example 48c, (4-Chloro-3-(4-fluorobenzyl)-2-methoxyquinolin-6-yl)(2,6-dimethylpyridin-3-yl)(1-methyl-1H-1,2,3-triazol-5-yl)methanol] | 0.3 | ~80 | 63 | 2.3 | 
COc1nc2ccc(C(O)(c3ccc(C(F)(F)F)cc3)c3cccnc3)cc2c(Cl)c1Cc1ccc(-n2cccn2)cc1 (single isomer, unassigned) [Example 162c] | 4.1 | 98 | 98 | 49 | 
COc1nc2ccc(C(O)(c3ccc(Cl)cc3)c3cncn3C)cc2c(Cl)c1Cc1ccc(C(F)(F)F)nc1 (centres unmarked) [Example 39a] | 66 | 72 |  | 110 | 92
COc1nc2ccc(C(O)(c3ccc(C(F)(F)F)cc3)c3cccnc3)cc2c(Cl)c1Cc1ccc(-n2cccn2)cc1 (centres unmarked) [Example 162a] | 20 | 310 |  | 250 | 90
